Experimental data reported in US6159940A, “Method for modulating hemopoiesis” (Immunotech Developments Inc., priority 1999, dated 2000).

Experiments:
Solubility = format: physicochemical
Text: The peptide prepared using this process is a yellowish grey or white powder, soluble in water, substantially insoluble in alcohol and substantially insoluble in chloroform. It has a UV spectrum in the range of 250-300 nm with a maximum at 280±2 nm.

T-cell = T-cell count in spleen, spontaneous rosette formation with sheep erythrocytes (E-FRC); format: in vivo, (CBA×C57BL)F1 mice
Description: Females and male (CBA×C57BL)F1 mice, aged about 2.5 months weighing about 20 g, were irradiated with gamma-rays using a "Luch-1" apparatus. Immunological activity was assessed according to Jerne (Antibody Forming Cells count--AFC). T-cell count in spleen was determined by the method of spontaneous rosette formation with sheep erythrocytes (E-FRC). The peptide was injected intramuscularly.
Mice were irradiated in a dose of 2 Gy, the peptide was injected in the dose of 10 μg/kg according to the following scheme (to determine T-cell count by the method of spontaneous rosette formation): 1 time--an hour after the irradiation; 2 times--an hour, and a day after irradiation; 3 times--an hour, a day, and two days after the irradiation; 4 times--an hour, a day, two days and three days after the irradiation. The intact mice recieved the peptide 3 or 4 times. The control group (2 Gy) recieved injections of physiological solution according to the same schedule. On completion of the treatment course, 10 mice from each group were immunized with sheep erythrocytes (SE) and 4-5 days later AFC counts were determined in their spleens. The rest of the mice were used to find T-cell count by the method of spontaneous rosette formation. The state of the organs of immune system (spleen and thymus) in mice with radiation immunodeficiency against the background of H-Ile-Glu-Trp-OH treatment was also listed by nucleated cell counts in thymus and spleen per mg of organ weight. AFC/mg Spleen weight is presented as an average of two experiments.

CFU-S-8 and CFU-S-12 = test: Cytostatic (Cytosine-Arabinoside)-induced cytopenia: karyocytes, CFU-S-8, CFU-S-12 in bone marrow; format: in vivo, mice; settings: donor bone marrow; CA 20 mg/kg i.p. once; N 10 μg/kg once daily, three injections
Description: Used as a cytostatic, Cytosine-Arabinoside (CA) was intraperitoneally injected to donor mice once in the dose of 20 mg/kg. The peptide was given according to the following scheme: 10 μg/kg once daily, three injections starting from the first hour after CA. Intact mice received H-Ile-Glu-Trp-OH in the same doses and according to the same schedule. On day 8 after the cytostatic injection, determined were karyocyte count in the donor bone marrow and the content of hemopoietic progenitors of different polipotencies: committed CFU-S-8 and CFU-S-12. CFU-8 are committed stem cells which later undergo differentiation. CFU-12 are the polypotent cells, from which stem cells can be recruited (i.e. they maintain the pool of stem cells). This is a slowly proliferating cell population, mainly in G phase. That is why it is important to evaluate the effect of a preparation on the pools of both committed (CFU-8) and polypotent (CFU- 12) cells. To this end, bone marrow was extracted from donor's femoral bones and injected to lethally irradiated recipients. After the cell injections, every test group was divided into 2 subgroups: some animals were killed on day 8, the other on day 12. Spleens were taken out and the colonies were counted. The tests were carried out on 105 mice.

Thymoma EL-4 cells = Thymoma EL-4 cells incubated with peptide and oxyurea, transplanted to mice: tumor growth and survival; format: in vivo, C57B1 mice
Description: The Thymoma EL-4 cells were extracted from the abdomen cavity of C57B1 mice at the 7th day after transplantation. The suspension was washed by centrifugation in the medium RPMI. Then the cells were resuspended in the growth medium (RPMI+10% of embryo serum+0.1% penicillin/streptomycin) and were split in culture flasks 5 ml each ([…] per flask). 2 mg of the preparation were added (20 μl) to each probe. After 18 hours of incubation (37 degrees Celsius CO2), OU was added to the half of probes (1 mg per 5 ml). Incubation was done for 1 more hour in the same conditions and then cells were washed out by centrifugation in the medium RPMI. The precipitated cells were resuspended in calculation 1 ml per 0.2 ml of RPMI medium and then transplanted to the mice C57B1 under the back skin.
The taking of the measurements of the size of the tumor was started after the knot became visible. The tumor was measured every day until it was impossible to measure. The survival ability of the mice was examined during 60 days after transplantation. Mice that survived after this period were considered to be cured. Each experimental group consisted of 6 animals.

[1] = system: mixed lymphocyte culture (H-2d anti H-2b); test: Proliferation of mixed lymphocyte culture (MLC), 3H-thymidine; format: cell-based
Description: This experimental system is an in vitro the analog of the Graft Versus Host Disease reaction.
In the present series of experiments the reaction H-2d, anti H-2b was examined. The new combination responder-stimulator. Each variant was made in a triplet. Microcultures were incubated for 4 days, then 3H-thymidine was added; then the mixture was incubated for 16 more hours, and after its transfer to the filters, the amount of 3H-thymidine was determined. H-Ile-Glu-Trp-OH was added at the beginning of the incubation in different concentrations.

[2] = Effect on cardio-vascular and respiratory systems, guinea pigs; format: in vivo
Description: The effects of H-Ile-Glu-Trp-OH on ECG and arterial pressure were studied in guinea pigs and cats.
The test was conducted in 20 guinea pigs.

[3] = 60 days after transplantation of treated EL-4 cells

H-Ile-Glu-Trp-OH
Solubility (Solubility; alcohol): moderately soluble
Solubility (Solubility; chloroform): insoluble
Solubility (Solubility; water): readily soluble
T-Cell Count, column 1 (T-cell; 2 Gy, 1 Injection): 34.5 ± 1.7 10^3 /mg Spleen
T-Cell Count, column 1 (T-cell; 2 Gy, 2 Injection): 35.6 ± 1.8 10^3 /mg Spleen
T-Cell Count, column 1 (T-cell; 2 Gy, 3 Injection): 45.3 ± 3.4 10^3 /mg Spleen
T-Cell Count, column 2 (T-cell; 2 Gy, 3 Injection): 23.2 ± 3.7 10^3 /mg Spleen
T-Cell Count, column 1 (T-cell; 2 Gy, 4 Injection): 48.4 ± 2.5 10^3 /mg Spleen
T-Cell Count, column 2 (T-cell; 2 Gy, 4 Injection): 13.0 ± 0.8 10^3 /mg Spleen
T-Cell Count, column 2 (T-cell; intact mice, 3 Injections): 12.7 ± 1.5 10^3 /mg Spleen
T-Cell Count, column 2 (T-cell; intact mice, 4 Injections): 18.7 ± 5.8 10^3 /mg Spleen
Day 8 COUNT CFU-S-8 (CFU-S-8 and CFU-S-12): 2805 ± 232
Day 8 COUNT CFU-S-12 (CFU-S-8 and CFU-S-12): 2930 ± 152
Day 8 COUNT Karyocytes (CFU-S-8 and CFU-S-12): 23.0 ± 0.9 × 10^6
% of Survival (Thymoma EL-4 cells; [3]): 16.6%
Number of Survived Mice From 6 (Thymoma EL-4 cells; [3]): 1/6
extension of lifetime in combination with cytostatics (Thymoma EL-4 cells; mice with Thymoma EL-4): 15 days
increase in lifetime versus control (Thymoma EL-4 cells; mice with Thymoma EL-4): 4 days
tumor growth (Thymoma EL-4 cells; thymoma cells incubated with H-Ile-Glu-Trp-OH, then OU): depression of the tumor growth on the 12th day is most definite
proliferation of the allogenic lymphocytes ([1]; 0.1 μg/ml (FIG. 4)): negligible inhibition of the proliferation
proliferation of the allogenic lymphocytes ([1]; 1, 10, and 20 μg/ml (FIG. 4)): stimulation of proliferation
ECG readings and arterial pressure [2]: No significant difference from control
